In brackets after ≈: the same amount, converted by molar mass. Like-named read-outs stand apart in the source and are kept apart here. Starred links: 1 amine or outer side, 2 acyl side, 3 side chain; linkers in the order of their positions; H or OH if unused. Positions of bridges follow the written chain, without caps; N, C: chain ends. Non-standard residues stand in square brackets, D forms with d. Residues, ends and D or L forms follow the SMILES beside them. X4 = CC(C)CCC=CCCC[C@H](CC(=O)[*:1])O[*:2]; X6 = CC(C)CCCCC=CC[C@H](CC(=O)[*:1])O[*:2]; X5 = CC(C)CCCCCCC[C@H](CC(=O)[*:1])O[*:2]; X3 = CC(C)CCCCC[C@H](CC(=O)[*:1])O[*:2]; X7 = CCCCCCC=CC[C@H](CC(=O)[*:1])O[*:2]; X2 = CCCCCCC[C@H](CC(=O)[*:1])O[*:2]; Val(3-OH) = CC(C)(O)[C@H](N)C(=O)O; X1 = C/C=C(/N[*:1])C(=O)[*:2]; Dab = NCC[C@H](N)C(=O)O; Dap = NC[C@H](N)C(=O)O
Columns and labels:
[1] = in vitro; format: cell-based; conditions: human, pH 7.4, Hemolysis (%)
Method: positive control (Bortezomib) SI of <5%. The half maximal inhibitory concentration (IC50) was determined from log concentration-effect curves using non-linear regression analysis.
Frequency of resistance (FoR). For the determination of the FoR, the MIC of compound 2 was first evaluated on solid MH-agar medium prepared in 35 mm diameter plates. Each plate contained 4 mL agar with the appropriate amount of compound. Bacterial cultures were grown and prepared as described for the MIC assay. 13 µL of bacterial culture diluted to 0.5 MacFarland was inoculated into 1 mL 0.9% NaCl resulting in ~2 × 10^6 CFU/mL. 5 µL of this bacterial suspension was spotted onto the surface of each agar plate (~10^4 CFU/spot). Plates were sealed and incubated at 37°C for 18–20 hours. Agar MIC was recorded according to CLSI guidelines as the lowest concentration of […]
faint haze caused by the inoculum. Then 9 cm plates were prepared with 25 mL MHII agar medium containing 4 × or 8 × solid MIC concentrations of test compounds and seeded with 100 µL of a bacterial preparation, concentrated by centrifugation from overnight cultures and resuspended in 0.9% NaCl, corresponding to 108 CFU and 109 CFU per plate, and spread on the agar using 4–5 glass beads of 4 mm diameter. Since CFU were evaluated using the McFarland turbidity standard, the exact CFU number plated was evaluated by plating of serial dilutions of each inoculum preparation on MHII agar plates. Plates were incubated at 37°C and colonies were counted at 24 h and 48 h post-plating. The frequencies of resistance were then calculated by counting the number of validated resistant colonies growing on antibiotic preparations divided by the evaluated number of CFU in the inoculum.
Hemolysis assay. Compounds were evaluated for hemolytic activity using red blood cells from heparinized human blood. Red blood cells (RBC) were washed three times in Tyrode buffer (130 mM NaCl, 4 mM KCl, 2.8 mM NaOAc, 1 mM MgCl2, 10 mM HEPES, 10 mM glucose, 1 mM CaCl2, adjusted to pH 7.4) and resuspended in the same buffer. Final concentrations in the hemolysis assay were: 100 µM compound, 1% DMSO, and 50% RBC, assayed in a 200 µL volume in a microtiter plate. The mixture was incubated at 37 °C for 45 min with shaking (250 rpm). After incubation, RBCs were removed by centrifugation (1000 × g for 10 min), 100 µL clear plasma was transferred to a fresh microtiter plate, and the amount of hemoglobin measured using a spectrophotometer at 540 nm. The […]
complete lysis control contained 2% Triton X-100 (in Tyrode buffer) instead of compound; the negative control contained Tyrode buffer but no compound. Percent hemolysis was calculated as:
[Abs compound] - [Abs negative control] / [Abs complete lysis control] - [Abs negative control] ×
100. Values greater than 1% hemolysis at 100 µM were regarded as a red flag.
Bacterial membrane permeabilization assay. Liposomes were manufactured and permeabilization assayed as described previously.8 Briefly, dry lipid films of E. coli polar lipid extract were formed on round-bottom flask walls. This was achieved by dissolving lipids in chloroform and evaporating the solvent under agitation and nitrogen gas flow, followed by incubation in vacuum chamber. Lipid films were re-suspended by 30 min stirring (E. coli) at 55°C in an aqueous solution of 100 mM 5(6)-carboxyfluorescein in 10 mM Tris buffer (set to pH 7.4 at 37°C). Suspensions were subjected to repeated extrusion through a 100 nm pore size polycarbonate membrane in order to reduce multilamellar structures and polydispersity. Un-trapped carboxyfluorescein was removed by gel filtration. Membrane permeability was measured by monitoring carboxyfluorescein efflux from the liposomes to the external low concentration environment, resulting in loss of self-quenching and an increased fluorescence signal. The 96-well plates were prepared with a 2-fold serial dilution of the samples in Tris buffer, as well as negative controls (background) and 0.16% Triton X-100 (maximum […]
leakage). […]

[2] = Bacterial membrane permeabilization assay (carboxyfluorescein leakage from liposomes); format: biochemical; conditions: large unilamellar liposomes from E. coli phospholipid extract, 45 min, 37 °C
[3] = system: P. aeruginosa; experiment: MIC determined at the Public Health Agency of Sweden (EUCAST); format: cell-based, Pseudomonas aeruginosa; conditions: for MIC: Pseudomonas aeruginosa, Public Health Agency of Sweden
Method: 10^8 CFU/mL) with turbidity assessed using a Sensititre Nephelometer (Trek Diagnostics Systems Ltd, UK). 50 µL of this bacterial suspension was transferred to 10 mL of MHII broth to give a final bacterial concentration ≅ 5 × 10^5 CFU/mL (acceptable range 3 – 7 × 10^5 CFU/mL). 50 µL of bacterial suspension was pipetted into each well (except the medium control well, where 50 µL MHII was pipetted). Final volume in each well was 100 µL. Plates were covered and incubated without shaking for 18-20 h at 35 °C ± 2 °C. MIC was read visually, as complete inhibition of growth by the unaided eye, using the medium-only wells as the control. Each compound was assayed at least in duplicate.
Additionally, the MIC for compound 2 against clinical carbapenem-resistant strains of A. baumannii […]
determined at the Public Health Agency of Sweden (according to EUCAST recommendations).
In vitro Cytotoxicity Determination. In vitro cytotoxicity was determined by a fluorometric microculture cytotoxicity assay,7 based on hydrolysis of fluorescein diacetate to fluorescein by cells with intact plasma membranes. In short, HepG2 cells (hepatocellular carcinoma cells, ATCC), in Eagle's Minimum Essential Medium (ATCC) supplemented with 10 % fetal bovine serum, penicillin/streptomycin (100 U/100 µg/mL) and 2 mM L-glutamine, were seeded in 384-well assay plates at a density of 1000 cells/well. The cells were incubated over night at 37°C and compounds in 10 mM DMSO were added, to obtain final concentrations 64 µM – 0.25 µM in two-fold dilutions.
After incubation for 72 h at 37°C, the cells were pelleted and washed. Fluorescein diacetate was added (1 µL, 0.5 mg/mL) and the fluorescence [485 nm(exc)/530 nm(em.)] was measured after 50 min at 37°C. Bortezomib (2 µM) was used as positive control and dose response testing of doxorubicin (top concentration 2 µM) was performed repeatedly to follow assay performance over time. Cytotoxicity was assessed after 72 h with cell survival presented as survival index (SI, %) defined as fluorescence in test wells in percent of control cultures with blank values subtracted.
Criteria for a successful assay include a signal-to-noise ratio in control cultures >10, CV <30% and a 7 Lindhagen, E., Nygren, P., and Larsson, R. (2008) The fluorometric microculture cytotoxicity assay. Nat.

SMILES | hemolysis at 45 min, 100 µM [1] | other results
C/C=C1/NC(=O)[C@H](CCN)NC(=O)[C@H](CC(C)C)NC(=O)[C@H](CN)NC(=O)C[C@@H](CCCC=CCCC(C)C)OC(=O)[C@H](CC(=O)O)NC(=O)[C@H](C(C)C)NC(=O)[C@@H](Cc2ccccc2)NC(=O)[C@H](CN)NC(=O)[C@H]([C@@H](C)O)NC1=O [Compound 7, Isopedopeptin G] ([Dap]L[Dab][X1]T[Dap][dF]VD; linker N-C via X4) | 14.1% | 
C/C=C1/NC(=O)[C@H](CCN)NC(=O)[C@H](CC(C)C)NC(=O)[C@H](CN)NC(=O)C[C@@H](CCCCCC(C)C)OC(=O)[C@H](CC(=O)O)NC(=O)[C@H](C(C)(C)O)NC(=O)[C@@H](Cc2ccccc2)NC(=O)[C@H](CN)NC(=O)[C@H]([C@@H](C)O)NC1=O [Compound 1, cyclo(3-hydroxy-9-methyldecanoyl-DAPA1-Leu-DABA-ABA-Thr-DAPA2-Phe-OHVal-Asp)] ([Dap]L[Dab][X1]T[Dap][dF][Val(3-OH)]D; linker N-C via X3) | 4.2% | 
C/C=C1/NC(=O)[C@H](CCN)NC(=O)[C@H](CC(C)C)NC(=O)[C@H](CN)NC(=O)C[C@@H](CCCCCCC)OC(=O)[C@H](CC(=O)O)NC(=O)[C@H](C(C)C)NC(=O)[C@@H](Cc2ccccc2)NC(=O)[C@H](CN)NC(=O)[C@H]([C@@H](C)O)NC1=O [Compound 4, isopedopeptin D] ([Dap]L[Dab][X1]T[Dap][dF]VD; linker N-C via X2) | 9.1% | 
C/C=C1/NC(=O)[C@H](CCN)NC(=O)[C@H](CC(C)C)NC(=O)[C@H](CN)NC(=O)C[C@@H](CCCCCC(C)C)OC(=O)[C@H](CC(=O)O)NC(=O)[C@H](C(C)C)NC(=O)[C@@H](Cc2ccccc2)NC(=O)[C@H](CN)NC(=O)[C@H]([C@@H](C)O)NC1=O [Compound 5, Isopedopeptin E] ([Dap]L[Dab][X1]T[Dap][dF]VD; linker N-C via X3) | 5.2% | 
C/C=C1/NC(=O)[C@H](CCN)NC(=O)[C@H](CC(C)C)NC(=O)[C@H](CN)NC(=O)C[C@@H](CCCCCCCC(C)C)OC(=O)[C@H](CC(=O)O)NC(=O)[C@H](C(C)(C)O)NC(=O)[C@@H](Cc2ccccc2)NC(=O)[C@H](CN)NC(=O)[C@H]([C@@H](C)O)NC1=O [Compound 6, Isopedopeptin F] ([Dap]L[Dab][X1]T[Dap][dF][Val(3-OH)]D; linker N-C via X5) | 27.5% | EC50 [2]: 2000 nM
C/C=C1/NC(=O)[C@H](CCN)NC(=O)[C@H](CC(C)C)NC(=O)[C@H](CN)NC(=O)C[C@@H](CC=CCCCCCC)OC(=O)[C@H](CC(=O)O)NC(=O)[C@H](C(C)(C)O)NC(=O)[C@@H](Cc2ccccc2)NC(=O)[C@H](CN)NC(=O)[C@H]([C@@H](C)O)NC1=O [Compound 3, isopedopeptin C] ([Dap]L[Dab][X1]T[Dap][dF][Val(3-OH)]D; linker N-C via X7) | 3% | 
C/C=C1/NC(=O)[C@H](CCN)NC(=O)[C@H](CC(C)C)NC(=O)[C@H](CN)NC(=O)C[C@@H](CC=CCCCCC(C)C)OC(=O)[C@H](CC(=O)O)NC(=O)[C@H](C(C)C)NC(=O)[C@@H](Cc2ccccc2)NC(=O)[C@H](CN)NC(=O)[C@H]([C@@H](C)O)NC1=O [Compound 8, Isopedopeptin H] ([Dap]L[Dab][X1]T[Dap][dF]VD; linker N-C via X6) | 52.3% | 
C/C=C1/NC(=O)[C@H](CCN)NC(=O)[C@H](CC(C)C)NC(=O)[C@H](CN)NC(=O)C[C@@H](CCCCCCC)OC(=O)[C@H](CC(=O)O)NC(=O)[C@H](C(C)(C)O)NC(=O)[C@@H](Cc2ccccc2)NC(=O)[C@H](CN)NC(=O)[C@H]([C@@H](C)O)NC1=O [Compound 2, isopedopeptin B] ([Dap]L[Dab][X1]T[Dap][dF][Val(3-OH)]D; linker N-C via X2) | < 0.8% | MIC ([3]; ATCC27853, WT, read-out: MIC P. aeruginosa ATCC27853): 4 µg/mL (≈ 3.58 µM); MIC ([3]; CARBA, read-out: MIC P. aeruginosa PS826): 4 µg/mL (≈ 3.58 µM); MIC ([3]; CARBA, read-out: MIC P. aeruginosa PS992): 4 µg/mL (≈ 3.58 µM); MIC carbapenem-resistant P. aeruginosa ([3]; summary in text over strains, strains not named): ≥ 4 µg/mL
